Data on eight compounds can be found in ChEMBL document CHEMBL3046098, “Effect of tropine derivatives, antimuscarinic agents, on the growth of Bombyx mori larvae” (1998).

Each structure is given as a SMILES string. The source made the active and inactive calls. The calls are words filed in the database; no cut-off is given here.

Test [1] has as its system Bombyx mori. As to the kind of experiment: Insecticidal activity against Bombyx mori Shunrei x Shogetu fourth-instar larva assessed as effect on larval growth at 160 ug/larvae upon topial application. The format is functional, organism-based.
The test system of test [2] is Bombyx mori. As to the kind of experiment: Insecticidal activity against Bombyx mori Shunrei x Shogetu fourth-instar larvae assessed as effect on larval growth at 100 ppm administered in diet relative to untreated control. It is filed as functional, organism-based.
Test [3] relates to Bombyx mori. As to the kind of experiment: Insecticidal activity against Bombyx mori Shunrei x Shogetu fourth-instar larva assessed as effect on larval molting at 160 ug/larvae upon topial application. It is filed as functional, organism-based.
Test [4] has as its system Bombyx mori. As to the kind of experiment: Insecticidal activity against Bombyx mori Shunrei x Shogetu fourth-instar larvae assessed as induction of delay in 4th ecdysis at 10 to 30 ppm administered in diet relative to untreated control. The format is functional.
For test [5], the system named is Bombyx mori. As to the kind of experiment: Effect on feeding in Bombyx mori Shunrei x Shogetu fourth-instar larvae assessed as change in quantity of excrement at 10 to 30 ppm administered in diet relative to untreated control. The format is functional, organism-based.
In test [6] the test system is Bombyx mori. Briefly: Insecticidal activity against Bombyx mori Shunrei x Shogetu fourth-instar larvae assessed as induction of delay in 4th ecdysis at 100 ug/larva applied daily through topical route (reference value: 4.3 +/- 0.48 days). The format is functional.
In test [7] the test system is Bombyx mori. As to the kind of experiment: Insecticidal activity against Bombyx mori Shunrei x Shogetu fourth-instar larvae assessed as incidence of prolongation of 4th ecdysis at 30 ppm administered in diet relative to untreated control. The format is functional.

Turning to `CN1C2CC[C@@H]1C[C@@H](OC(=O)CC(c1ccccc1)c1ccccc1)C2` (single isomer, unassigned), the result in the test with Bombyx mori [1], in the test with Bombyx mori [2] and in the test on Bombyx mori [3] was inactive.
As to `CN1[C@@H]2CC[C@H]1C[C@@H](OC(=O)C(CO)c1ccccc1)C2` (stereo not given in full) [ATROPINE], the figures for the Time in the test on Bombyx mori [4] and in the test with Bombyx mori [6] were 1 days and 4.7 days, respectively. Besides, the outcome in the test with Bombyx mori [5] was inactive.
As for `CN1C2CC[C@@H]1C[C@@H](OC(=O)c1ccc(Cl)cc1Cl)C2` (single isomer, unassigned), the outcome with Bombyx mori [1] and in the test with Bombyx mori [3] was inactive.
`CN1C2CC[C@@H]1C[C@@H](OC(=O)c1ccc3ccccc3c1)C2` (single isomer, unassigned): the outcome in the test on Bombyx mori [1] and in the test with Bombyx mori [3] was inactive.
With `CN1C2CC[C@@H]1C[C@@H](OC(=O)C(C)(c1ccccc1)c1ccccc1)C2` (single isomer, unassigned), the result with Bombyx mori [5], with Bombyx mori [1] and with Bombyx mori [3] was inactive. Moreover, the Activity in the test with Bombyx mori [7] stood at 40%. In addition, the Time in the test with Bombyx mori [6] was 5.3 days.
As for `CN1C2CC[C@@H]1C[C@@H](OC(=O)C(C)(C)C)C2` (single isomer, unassigned), the outcome in the test with Bombyx mori [1] and in the test with Bombyx mori [3] was inactive.
Consider `O=C(O)CC(c1ccccc1)c1ccccc1`, for which the result with Bombyx mori [2] was inactive.
As for `CN1C2CC[C@@H]1C[C@@H](OC(=O)C(c1ccccc1)c1ccccc1)C2` (single isomer, unassigned), the result in the test with Bombyx mori [1] and in the test with Bombyx mori [3] was inactive.
